Tests used:
[1] = target: T1, RORγ ligand binding domain (LBD) (Homo sapiens, UniProt P51449); experiment: TR-FRET Activity Assay (ligand sensing assay, RORγ-LBD / coactivator peptide interaction); format: biochemical
T1 construct: made in house; host or cells: E. coli BL-21 (BL3), vector pDEST15
T1 sequence (P51449 269-508 limits assumed): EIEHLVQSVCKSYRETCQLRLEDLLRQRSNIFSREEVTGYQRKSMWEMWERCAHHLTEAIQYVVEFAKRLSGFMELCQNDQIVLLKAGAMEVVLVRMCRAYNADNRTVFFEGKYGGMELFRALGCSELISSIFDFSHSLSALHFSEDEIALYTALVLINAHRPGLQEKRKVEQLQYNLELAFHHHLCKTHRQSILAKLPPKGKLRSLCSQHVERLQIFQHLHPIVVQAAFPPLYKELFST
Excerpt: This method measures the ability of putative ligands to modulate the interaction between the purified bacterial expressed RORγ ligand binding domain (LBD) and synthetic N-terminally biotinylated peptides which are derived from nuclear receptor coactivator proteins such as but not limited to SRC1 (NcoA1), SRC2 (NcoA2, TIF2), SRC3 (NcoA3), PGC1α, PGC1β, CBP, GRIP1, TRAP220, RIP140.
The ligand-binding domain (LBD) of RORγ was expressed as fusion protein with GST in […] cells using the vector pDEST15. Cells were lysed by lysozyme-treatment and sonication, and the fusion proteins purified over glutathione sepharose (Pharmacia) according to the manufacturers instructions. For screening of compounds for their influence on the RORγ-peptide interaction, the LANCE technology (Perkin Elmer) was applied. This method relies on the binding dependent energy transfer from a donor to an acceptor fluorophor attached to the binding partner of interest. For ease of handling and reduction of background from compound fluorescence LANCE technology makes use of generic fluorophore labels and time resolved detection assays were done in a final volume of 25 μL in a 384 well plate, in a Tris-based buffer system (20 mM Tris-HCl pH6.8; 60 mM KCl, 1 mM DTT; 5 mM MgCl2; 35 ng/μL BSA), containing 20-60 ng/well recombinantly expressed RORγ-LBD fused to GST, 200-600 nM N-terminally biotinylated peptide, 200 ng/well Streptavidin-xIAPC conjugate (Prozyme) and 6-10 ng/well Eu W1024-antiGST (Perkin Elmer). DMSO content of the samples was kept at 1%.
After generation of the Tris-based buffer system, the potentially RORγ modulating ligands were diluted. […] The LANCE signal was detected by a Perkin Elmer EnVision™ Multilabel Counter. The results were visualized by plotting the ratio between the emitted light at 665 nm and 615 nm. […] Ligands that promote the complex formation induce a concentration-dependent increase in time-resolved fluorescent signal.
To assess the antagonistic potential of the compounds, IC50 values were determined using a Ligand Sensing Assay based on Time-resolved Fluorescence Energy Transfer (TR-FRET) as described above. The normalised TR-FRET assay values, using the following equation: 1000*665 nm measurement value/615 nm measurement value, were transferred to the program GraphPad Prism to generate graphs and dose response curves using the following equation: […]
This is identical to the “four parameter logistic equation”. The IC50 values are calculated using this equation. […] Is is understood that the data illustrated below may have reasonable variation depending on the specific conditions and procedures used by the person conducting the test.

RORγ = target: T2, RORγ (UniProt P51449); format: cell-based; details: 293T cells, 16 h; for pIC50 (FF): firefly (FF) luciferase; for pIC50 (REN): renilla normalised (RENnorm) luciferase
T2 construct: hRORg-LBD|aa259-518|NP_005051.2; hRORgt|aa1-497|NP_001001523 (RORg, t isoform, 497aa); mRORg-LBD|aa264-516|NP_035411
T2 sequence (P51449 1-518): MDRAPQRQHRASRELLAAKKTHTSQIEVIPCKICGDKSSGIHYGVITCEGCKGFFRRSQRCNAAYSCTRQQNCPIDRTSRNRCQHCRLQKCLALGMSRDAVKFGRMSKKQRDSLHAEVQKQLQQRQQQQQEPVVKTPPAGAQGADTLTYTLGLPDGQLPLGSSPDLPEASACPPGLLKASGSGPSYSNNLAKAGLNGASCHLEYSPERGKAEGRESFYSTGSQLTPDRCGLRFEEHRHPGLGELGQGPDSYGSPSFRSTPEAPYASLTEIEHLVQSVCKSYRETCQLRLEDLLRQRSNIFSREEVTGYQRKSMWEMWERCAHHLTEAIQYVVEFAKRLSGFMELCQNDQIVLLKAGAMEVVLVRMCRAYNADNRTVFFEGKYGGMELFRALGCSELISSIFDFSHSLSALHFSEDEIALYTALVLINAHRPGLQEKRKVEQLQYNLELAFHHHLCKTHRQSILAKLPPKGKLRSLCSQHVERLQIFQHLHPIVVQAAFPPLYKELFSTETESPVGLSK
Description: Determination of a ligand mediated Gal4 promoter driven transactivation to quantify ligand binding to RORγ was performed as follows: DNA encoding three different RORγ. protein fragments was cloned into vector pCMV-BD (Stratagene). Expression was under control of a CMV promoter and as fusion to the DNA-binding domain of the yeast protein GAL4. Other vectors used were pFR-Luc (Stratagene) as regulated reporter plasmid. pFR-Luc contains a synthetic promoter with five tandem repeats of the yeast GAL4 binding sites that control expression of the Photinus pyralis (American firefly) luciferase gene. In order to improve experimental accuracy the plasmid pRL-CMV was cotransfected. pRL-CMV contains the constitutive CMV promoter, controlling the expression of the Renilla reniformis luciferase.
All Gal4 reporter gene assays were done in 293T cells (DSMZ (German Collection of Microorganisms and Cell Cultures), Braunschweig, Germany, ACC635) grown in Minimum Essential Medium (MEM) with Phenol Red. The medium is supplemented with 10% fetal bovine serum, 0.1 mM nonessential amino acids, 1 mM sodium pyruvate, 1% Glutamax and 100 units Penicilin/[…] per mL at 37° C. in 5% CO2.
For the assay, […] were plated per well in 96 well plates in 100 μL per well, incubated over night at 37° C. in 5% CO2. The following day, medium was discarded and the cells were transiently transfected using 20 μL per well of a OptiMEM—PEI-based transfection-reagent (Sigma-Aldrich, 408727) including the three plasmids described above. About 4 h after addition of the transfection solution, fresh Minimal Essential Medium (MEM, same composition as used for plating cells, but without serum) was added. Then compound stocks, prediluted in MEM (same composition as used for plating cells) were added (final vehicle concentration not exceeding 0.1%).
All experiments were done at least in triplicates.
It is understood that the data illustrated below may have reasonable variation depending on the specific conditions and procedures used by the person conducting the test.

| Compound | IC50 [1] [nM] | pIC50 (FF) (RORγ) | pIC50 (REN) (RORγ) |
| --- | --- | --- | --- |
| Cn1c(C(=O)O)cc(-c2ccc(S(=O)(=O)NC(C)(C)C)c3ccccc23)c1CC1CCCCC1 [Example 317, 4-(4-(N-(tert-Butyl)sulfamoyl)naphthalen-1-yl)-5-(cyclohexylmethyl)-1-methyl-1H-pyrrole-2-carboxylic acid] | 1260 | 6.9 | 6.9 |
| CC(C)(C)c1cc(-c2nc(C(=O)NC3CCOCC3)nn2CC2CCCCC2)cc(C(C)(C)C)c1O [308/4] | 1000 | 6.3 | 6.4 |
| Cc1c(C(=O)NC2CCOCC2)cn(-c2cc(C(C)(C)C)cc(C3(C)CC3)c2)c1C(=O)N1CCCCC1 [Example 13, 1-(3-(tert-Butyl)-5-(1-methylcyclopropyl)phenyl)-4-methyl-5-(piperidine-1-carbonyl)-N-(tetrahydro-2H-pyran-4-yl)-1H-pyrrole-3-carboxamide] | 1000 | 7.1 | 7.1 |
| Cn1c(CC2CCCCC2)c(-c2cc(C(C)(C)C)cc(C3(C)CC3)c2)c(Cl)c1C(=O)N[C@H]1C[C@H](C(=O)O)C1 [Example 20, trans-3-(4-(3-(tert-Butyl)-5-(1-methylcyclopropyl)phenyl)-3-chloro-5-(cyclohexylmethyl)-1-methyl-1H-pyrrole-2-carboxamido)cyclobutanecarboxylic acid] | 3980 | 7.2 | 7.3 |
| CC(C)(O)CNC(=O)c1nn(-c2cc(C(C)(C)C)cc(C(C)(C)C)c2)c(CC2CCCCC2)c1Cl [103/5] | 316 | 6.2 | 6.3 |
| Cn1c(C(=O)N[C@H]2C[C@H](C(=O)O)C2)cc(-c2cc(C(C)(C)C)cc(C3(C)CC3)c2)c1CC1CCCCC1 [Example 8, (trans)-3-(4-(3-(tert-BUTYL)-5-(1-methylcyclopropyl)phenyl)-5-(cyclohexylmethyl)-1-methyl-1H-pyrrole-2-carboxamido)cyclobutanecarboxylic acid] | 1000 | 7.6 | 7.7 |
| C[C@@H](O)CNC(=O)c1nc(-c2cc(C(C)(C)C)c(O)c(C(C)(C)C)c2)n(CC2CCCCC2)n1 [308/7] | 2510 | 5.7 | 5.9 |
| Cn1c(C(=O)NC23CCC(C(=O)O)(CC2)CC3)cc(-c2ccc(S(=O)(=O)NC(C)(C)C)c3ccccc23)c1CC1CCCCC1 [8/8] | 2000 | 8.4 | 8.4 |
| CC(C)(C)c1cc(-n2nc(C(N)=O)c(Cl)c2CC2CCCCC2)cc(C(C)(C)C)c1 [Example 313, 4-Chloro-5-(cyclohexylmethyl)-1-(3,5-di-tert-butylphenyl)-1H-pyrazole-3-carboxamide] | 100 | 6.3 | 6.4 |
| CC(C)(C)c1cc(-n2nc(C(=O)NCc3ccno3)c(Cl)c2CC2CCCCC2)cc(C(C)(C)C)c1 [103/6] | 631 | 6.1 | 6.2 |
| Cn1c(C(=O)N2CCC(C)(C(=O)O)CC2)cc(-c2cc(C(C)(C)C)cc(C3(C)CC3)c2)c1CC1CCCCC1 [8/16] | 1580 | 7.5 | 7.6 |
| CC(C)(C)NS(=O)(=O)c1ccc(-c2c(F)c(C(=O)NCCC(C)(C)C(=O)O)nn2CC2CCCCC2)cc1C(F)(F)F [Example 109, 4-(5-(4-(N-(tert-Butyl)sulfamoyl)-3-(trifluoromethyl)phenyl)-1-(cyclohexylmethyl)-4-fluoro-1H-pyrazole-3-carboxamido)-2,2-dimethylbutanoic acid] | 501 | 6.7 | 6.8 |
| CC(C)(C)NS(=O)(=O)c1ccc(-c2c(Cl)c(C(=O)N[C@H]3C[C@H](C(=O)O)C3)nn2CC2CCCCC2)cc1C(F)(F)F [Example 108, trans-3-(5-(4-(N-(tert-Butyl)sulfamoyl)-3-(trifluoromethyl)phenyl)-4-chloro-1-(cyclohexylmethyl)-1H-pyrazole-3-carboxamido)cyclobutanecarboxylic acid] | 501 | 6.4 | 6.4 |
| Cc1cc(-c2nc(C(N)=O)nn2CC2CCCCC2)cc(C(C)(C)C)c1O [Example 308, 5-(3-(tert-Butyl)-4-hydroxy-5-methylphenyl)-1-(cyclohexylmethyl)-1H-1,2,4-triazole-3-carboxamide] | 7940 | 6.0 | 5.9 |
| Cn1c(C(=O)N[C@H]2C[C@H](C(=O)O)C2)cc(-c2cc(C(C)(C)C)nc(C3(C)CC3)n2)c1CC1CCCCC1 [8/18] | 794 | 6.7 | 6.7 |
| CC(C)(C)c1cc(-n2nc(C(N)=O)cc2CC2CCCCC2)cc(C(C)(C)C)c1 [Example 312, 5-(Cyclohexylmethyl)-1-(3,5-di-tert-butylphenyl)-1H-pyrazole-3-carboxamide] | 251 | 6.2 | 6.3 |
| CC(C)(C)NS(=O)(=O)c1ccc(-c2cc(C(=O)N[C@H]3C[C@H](C(=O)O)C3)nn2CC2CCCCC2)cc1C(F)(F)F [100/6] | 316 | 6.3 | 6.3 |
| Cc1c(C(=O)N[C@H]2C[C@H](C(=O)O)C2)cn(-c2cc(C(C)(C)C)cc(C3(C)CC3)c2)c1[S+]([O-])C1CCCCC1 (stereo partly drawn) [Example 22, trans-3-(1-(3-(tert-Butyl)-5-(1-methylcyclopropyl)phenyl)-5-(cyclohexylsulfinyl)-4-methyl-1H-pyrrole-3-carboxamido)cyclobutanecarboxylic acid] | 2000 | 7.1 | 7.1 |

From patent US9458104B2 (priority 2012, dated 2016)
